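Values below derive from 48-hour exposures of cells grown in 96-well plates, with endpoints linearly interpolated between the two concentrations bracketing the appropriate inhibition level. Abbreviation: GI50, concentration required for 50% inhibition of growth. At the TGI there is no net growth.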
What was measured:
Experiment in all cases: inhibition of tumour cell growth, NCI panel, 48 h
HS 578T breast = tested on: HS 578T breast
SN12C renal = tested on: SN12C renal
BT-549 breast = tested on: BT-549 breast
RPMI-8226 leukemia = tested on: RPMI-8226 leukemia
MOLT-4 leukemia = tested on: MOLT-4 leukemia
PC-3 prostate = tested on: PC-3 prostate
HOP-92 NSCLC = tested on: HOP-92 NSCLC
DU-145 prostate = tested on: DU-145 prostate
MDA-MB-231 breast = tested on: MDA-MB-231 breast
OVCAR-3 ovarian = tested on: OVCAR-3 ovarian

Row | SMILES | GI50 (HS 578T breast) | TGI (HS 578T breast) | GI50 (SN12C renal) | TGI (SN12C renal) | GI50 (BT-549 breast) | TGI (BT-549 breast) | GI50 (RPMI-8226 leukemia) | TGI (RPMI-8226 leukemia) | GI50 (MOLT-4 leukemia) | TGI (MOLT-4 leukemia) | GI50 (PC-3 prostate) | TGI (PC-3 prostate) | GI50 (HOP-92 NSCLC) | TGI (HOP-92 NSCLC) | GI50 (DU-145 prostate) | TGI (DU-145 prostate) | GI50 (MDA-MB-231 breast) | TGI (MDA-MB-231 breast) | GI50 (OVCAR-3 ovarian) | TGI (OVCAR-3 ovarian)
1 | CCc1ccc(CCC(=O)Nc2ncc(Cc3ccccc3)s2)o1 | 2.29 µM | > 100 µM | 4.42 µM | > 100 µM | 52.2 µM | > 100 µM | 2.61 µM | > 100 µM | 2.43 µM | > 100 µM | 2.74 µM | > 100 µM | 18.3 µM | > 100 µM | 4.51 µM | > 100 µM | 2.52 µM | 22.2 µM | 2.67 µM | 21.6 µM
2 | Cc1ccc(NS(=O)(=O)c2cc(C)ccc2C)cc1 | 10.9 µM | 77.7 µM | 5.89 µM | 19.9 µM | 9.62 µM | 27.4 µM | 12.7 µM | > 100 µM | 5.43 µM | > 100 µM | 11.4 µM | 66.5 µM | 12.9 µM | 34.6 µM | 6.17 µM | 28.1 µM | 4.44 µM | 25.7 µM | 2.53 µM | 7.12 µM
3 | Cn1c2ccc([N+](=O)[O-])cc2c(=O)c2c(O)cc(O)cc21 |  | > 100 µM |  | > 100 µM |  | > 100 µM |  | > 100 µM |  | > 100 µM |  | > 100 µM |  | 96.3 µM |  | > 100 µM |  | > 100 µM |  | > 100 µM
4 | Fc1ccc(-c2nnc3sc(-c4cccc(Cl)c4)nn23)cc1Cl | > 100 µM | > 100 µM | > 100 µM | > 100 µM | > 100 µM | > 100 µM | > 100 µM | > 100 µM | > 100 µM | > 100 µM | > 100 µM | > 100 µM | 33.7 µM | 89.6 µM | > 100 µM | > 100 µM | > 100 µM | > 100 µM | > 100 µM | > 100 µM
5 | CN(C)CC#Cc1cccc(C(=O)c2cnn(-c3ccc(F)cc3)c2N)c1 | > 19.1 µM | > 25 µM | > 25 µM | > 25 µM | > 25 µM | > 25 µM | > 25 µM | > 25 µM | > 25 µM | > 25 µM | > 25 µM | > 25 µM | > 17.7 µM | > 25 µM | > 25 µM | > 25 µM | > 25 µM | > 25 µM | > 25 µM | > 25 µM
6 | COc1cccc(/C=C/C(=O)c2cc3c(N)c(C(=O)Nc4cccc(Cl)c4C)sc3nc2C)c1 | 1.71 µM | > 50 µM | 1.21 µM | 3.43 µM | 1 µM | 2.8 µM | 0.257 µM | 1.57 µM | 1.26 µM | > 50 µM | 1.43 µM | 7.34 µM | 1.04 µM | 3.16 µM | 1.33 µM | 3.98 µM | 1.13 µM | 2.68 µM | 0.854 µM | 2 µM
7 | Cc1c(Cl)cccc1NC(=O)c1sc2nc3c(cc2c1N)CCCCCC3 | 0.204 µM | 22.9 µM | 0.408 µM | > 50 µM | 0.439 µM | 23.4 µM | 0.166 µM | > 50 µM | 0.265 µM | > 50 µM | 0.174 µM | > 50 µM | 0.164 µM | 16.1 µM | 0.258 µM | > 50 µM | 0.356 µM | > 50 µM | 0.174 µM | 1.21 µM
